# In paper PMC12677843, “Multidisciplinary Preclinical Investigations on Ferrocenyl, Ruthenocenyl, and Benzyl Derivatives of Niridazole as New Drug Candidates against Schistosomiasis” (Chemmedchem, 2025):
# Tested on: SH-SY5Y cells
# Test: SYTOX cell viability assay, SH-SY5Y
# Format: cell-based, human
# Conditions: 20 µM, 24 h, serum-free charcoal-treated medium, vs DMSO control (0.2%), mean
# Method: The SYTOX cell viability assay was performed in SHSY5Y cells. Cells were treated with either compound (20 µM) or DMSO control (0.2%) for 24 h at 37 °C and 5% CO2 in serum‐free charcoal‐treated medium. Results were normalized to the DMSO control. Mean ± SD was calculated from three independent experiments, each performed in quadruplicate. […]
# serum-free media containing either treatment at a concentration of 20 µM or DMSO (ITW Reagents Cat A3672) control (0.2 %).
# Following 24 h of incubation, 12.5 μL of an XTT/phenazine methosulfate (PMS) (XTT Sigma Aldrich cat X4626, PMS Serva CAT: 3203) 0.02solution (1 mg/mL XTT and 7.5 μg/mL PMS) was added to each well. Absorbance was measured using a microplate reader (Biotek Synergy HT) at 450 nm (signal) and 650 nm (background), 2 h after the addition of the XTT/PMS solution. Individual backgrounds were subtracted and all results were normalized to DMSO control. Mean ± SD was determined from three independent experiments, each performed in quintuplicate.
# SYTOX cell viability assay
# The cytotoxic potential was additionally evaluated using the staining-based SYTOX viability assay. […] Data was acquired on the BioTeck Cytation5 microscope and evaluated by the manufacturer’s software (Gen5 Image Prime Version 3.12). […] Mean ± SD was determined from three independent experiments, each performed in quadruplicate. […]
smiles,measurement,value
"O=C1NCCN1c1ncc([N+](=O)[O-])s1 [Niridazole, niridazole]",reduction of SH-SY5Y cell viability (SYTOX),no signs of toxicity
